Test results from ChEMBL document CHEMBL1201862, “PubChem BioAssay data set” (2004).
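In this assay, cells in 96-well plates receive the compound at five concentrations for 48 hours. Endpoints are linearly interpolated between the surrounding concentrations. GI50 is the concentration that inhibits growth by half.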 Activity calls are given as the source filed them. No stated cut-off is given here; in the data, active = GI50 up to about 1.1 µM and inactive = higher.

Legend:
Experiment in all cases: NCI anticancer screen, dose series, 48 h
[1] = test system: A498
[2] = test system: EKVX
[3] = test system: SN12C
[4] = test system: HCT-116
[5] = test system: COLO 205
[6] = test system: A549
[7] = test system: OVCAR-8
[8] = test system: LOX IMVI
[9] = test system: SNB-75
[10] = test system: K562
[11] = test system: UACC-257
[12] = test system: SF-295
[13] = test system: OVCAR-5
[14] = test system: NCI-H23
[15] = test system: 786-0
[16] = test system: BT-549
[17] = test system: MOLT-4
[18] = test system: SK-OV-3
[19] = test system: RPMI-8226
[20] = test system: MDA-N

Measured: GI50

O=C1c2cc3c(cc2CC12Cc1cc4c(cc1C2=O)CCC4)CCC3
inactive: [1] > 100 µM | [2] > 100 µM | [3] > 100 µM | [4] > 100 µM | [5] > 100 µM | [6] > 100 µM | [7] > 100 µM | [8] > 100 µM | [9] > 100 µM | [10] > 100 µM | [11] > 100 µM | [12] > 100 µM | [13] 48.3 µM | [14] > 100 µM | [15] > 100 µM | [16] > 100 µM | [17] > 100 µM | [18] > 100 µM | [19] > 100 µM

O=C1C=Cc2cscc21
inactive: [1] > 100 µM | [2] 46.5 µM | [3] 28.1 µM | [4] 15.3 µM | [5] 47.4 µM | [6] 62.7 µM | [7] 32.6 µM | [8] 35.8 µM | [9] 42.5 µM | [10] 31.9 µM | [11] > 100 µM | [12] 49.4 µM | [14] 21.2 µM | [15] 16.4 µM | [16] 53.7 µM | [17] 14.3 µM | [18] > 100 µM | [19] 20.4 µM

COc1cc(/C=C2\CCC(C)C3=C2NC(=S)NC3c2cc(OC)c(OC)c(OC)c2)cc(OC)c1OC (configuration not stated)
inactive: [1] 53 µM | [2] 58.1 µM | [3] 68.4 µM | [4] 49 µM | [20] 43.1 µM | [6] 36.4 µM | [7] 54 µM | [8] 53.2 µM | [9] 25.6 µM | [10] 26.1 µM | [11] 53.8 µM | [13] > 100 µM | [15] 83.9 µM | [17] 24 µM | [18] > 100 µM | [19] 18.5 µM

O=C1NC(N2CCOCC2)=N/C1=C\c1ccccc1O
inactive: [1] > 100 µM | [2] > 100 µM | [3] > 100 µM | [4] > 100 µM | [20] > 100 µM | [5] > 100 µM | [6] > 100 µM | [7] > 100 µM | [8] > 100 µM | [9] > 100 µM | [10] > 100 µM | [11] > 100 µM | [12] > 100 µM | [13] > 100 µM | [14] > 100 µM | [15] > 100 µM | [17] > 100 µM | [18] > 100 µM | [19] > 100 µM

CCCCCCC(=O)OC[n+]1ccc(-c2c(COC(=O)NC(C)C)c(COC(=O)NC(C)C)c3n2CCC3)cc1
inactive: [1] 46.9 µM | [2] > 100 µM | [3] 49.5 µM | [4] > 89.9 µM | [5] > 80.9 µM | [6] > 87.7 µM | [7] > 100 µM | [8] 42.9 µM | [9] > 68.1 µM | [10] > 100 µM | [11] > 100 µM | [12] > 75.2 µM | [13] > 100 µM | [14] 48.9 µM | [15] 39.6 µM | [16] > 91 µM | [17] 25.2 µM | [18] > 100 µM | [19] 38.5 µM

Oc1ccc(CCc2cc(O)cc(O)c2)cc1 [DIHYDRORESVERATROL]
inactive: [1] > 100 µM | [2] 50.5 µM | [3] 72.3 µM | [4] > 100 µM | [5] > 100 µM | [6] > 100 µM | [7] > 100 µM | [9] > 100 µM | [10] 80.7 µM | [11] > 100 µM | [12] > 100 µM | [13] > 100 µM | [14] > 100 µM | [15] > 100 µM | [16] > 100 µM | [17] 90.2 µM | [18] > 100 µM | [19] 23.4 µM

CC(CC[C@@H](C)C1CCC2[C@@H]3CC(O)C4CC(O)[C@@H](O)C[C@]4(C)C3CC[C@@]21C)C(C)(C)C (some centres not stated)
inactive: [1] > 100 µM | [2] > 100 µM | [3] > 100 µM | [4] > 100 µM | [5] > 100 µM | [6] > 100 µM | [7] > 100 µM | [8] > 100 µM | [9] > 100 µM | [10] > 100 µM | [11] > 100 µM | [12] > 100 µM | [13] > 100 µM | [14] > 100 µM | [15] > 100 µM | [17] > 100 µM | [18] > 100 µM | [19] > 100 µM

CC(=O)CCC1(C(=O)OCC(C)C)CCCC1=O (configuration not stated)
inactive: [2] > 100 µM | [3] > 100 µM | [4] > 100 µM | [20] > 100 µM | [5] > 100 µM | [6] > 100 µM | [7] > 100 µM | [8] > 100 µM | [9] > 100 µM | [10] > 100 µM | [11] > 100 µM | [12] > 100 µM | [13] > 100 µM | [14] > 100 µM | [15] > 100 µM | [16] > 100 µM | [17] > 100 µM | [18] > 100 µM

O=C1NC(=N/c2ccccc2)/C(=N\c2ccccc2)N1c1ccccc1
inactive: [1] 17.2 µM | [2] 16.7 µM | [3] 16.4 µM | [4] 17.7 µM | [20] 12.3 µM | [5] 14.8 µM | [6] 15.9 µM | [7] 15.8 µM | [8] 16.3 µM | [9] 16.3 µM | [10] 26.5 µM | [11] 15.8 µM | [12] 15.8 µM | [13] 18 µM | [14] 16.7 µM | [15] 15.5 µM | [17] 25.9 µM | [18] 17.6 µM | [19] 27 µM

COc1cc(/C=C2\[C@@H]3NC(Cc4c(OC)c(C)c(OC)c(OC)c43)C(=O)N2Cc2ccccc2)c(OC)c(C)c1OC
inactive: [1] 30.9 µM | [2] 29.4 µM | [3] 40.3 µM | [4] 37.5 µM | [5] 15 µM | [6] 41.5 µM | [7] 36.1 µM | [8] 42.7 µM | [9] 27.7 µM | [10] 34.3 µM | [11] 34.7 µM | [12] 40.8 µM | [13] 41.3 µM | [14] 49.7 µM | [15] 48.6 µM | [17] 27.5 µM | [18] 26.2 µM | [19] 29.8 µM

CC(=O)C(CN(C(C)C)C(C)C)C(c1ccccc1)c1c(O)c2ccccc2oc1=O (configuration not stated)
inactive: [1] > 100 µM | [2] > 100 µM | [3] > 100 µM | [4] > 100 µM | [5] > 100 µM | [6] > 100 µM | [7] > 100 µM | [8] > 100 µM | [9] 16.7 µM | [10] > 100 µM | [11] > 100 µM | [12] > 100 µM | [13] > 100 µM | [14] > 100 µM | [15] > 100 µM | [17] > 100 µM | [18] > 100 µM | [19] > 100 µM

O=C(Nc1ccccc1C(=O)NCc1ccccc1)/C(=C/c1ccccc1)NC(=O)c1ccccc1
inactive: [1] > 100 µM | [2] > 100 µM | [3] > 100 µM | [4] > 100 µM | [5] > 100 µM | [6] > 100 µM | [7] > 100 µM | [8] > 100 µM | [9] 92.7 µM | [10] > 100 µM | [11] > 100 µM | [12] > 100 µM | [13] > 100 µM | [14] > 100 µM | [15] 47.6 µM | [16] > 100 µM | [17] 80.7 µM | [18] > 100 µM | [19] > 100 µM

Cc1ccc(S(=O)OC23CC4CC(CC(C4)C2)C3)cc1 (configuration not stated)
inactive: [1] > 100 µM | [2] > 100 µM | [3] > 100 µM | [4] > 100 µM | [5] > 100 µM | [6] > 100 µM | [7] > 100 µM | [8] 39.2 µM | [9] 69.5 µM | [10] > 100 µM | [11] > 100 µM | [12] > 100 µM | [13] > 100 µM | [14] > 100 µM | [15] > 100 µM | [17] 29.9 µM | [18] > 100 µM | [19] 41.4 µM

Cc1cc(Cl)ccc1NC(=O)/C(Cl)=C(/Cl)C(=O)O
inactive: [2] 19.1 µM | [3] 18.1 µM | [4] 19 µM | [20] 24.1 µM | [5] 28.4 µM | [6] 48.8 µM | [7] 17.7 µM | [8] 19.9 µM | [9] 29.9 µM | [10] 31.8 µM | [11] 19.7 µM | [12] > 100 µM | [13] 19.5 µM | [14] 29.3 µM | [15] 23.1 µM | [16] 19.1 µM | [18] > 100 µM | [19] 24 µM

CSC(SC)=C1C(=O)NN=C1C
inactive: [2] > 100 µM | [3] > 100 µM | [4] > 100 µM | [20] > 100 µM | [5] > 100 µM | [6] > 100 µM | [8] > 100 µM | [10] > 100 µM | [11] > 100 µM | [12] > 100 µM | [13] > 100 µM | [14] > 100 µM | [15] > 100 µM | [16] > 100 µM | [17] > 100 µM | [18] > 100 µM | [19] > 100 µM
